In patent publication US7135462B2, “Hepatitis C virus inhibitors” (priority 2003, dated 2006):

Assays:
[1] = target: T1, HCV NS3/4A protease complex (BMS strain) (UniProt P27958, C1454S/C1711G, species not given); assay: Recombinant HCV NS3/4A protease complex FRET peptide assay; assay type: biochemical, Hepatitis C virus (HCV), genotype 1a; settings: NS3/4A BMS strain; activity range class; read-out: IC50
T1 construct: for H77 and J4L6S; fused on or other part: Three-lysine solubilising tail at the C-terminus of NS4A
From the text: Recombinant HCV NS3/4A Protease Complex FRET Peptide Assay
Serum from an HCV-infected patient was obtained from Dr. T. Wright, San Francisco Hospital. An engineered full-length cDNA (compliment deoxyribonucleic acid) template of the HCV genome (BMS strain) was constructed from DNA fragments obtained by reverse transcription-PCR (RT-PCR) of serum RNA (ribonucleic acid) and using primers selected on the basis of homology between other genotype 1a strains.
The H77 and J4L6S strains were used for production of recombinant NS3/4A protease complexes. […] Briefly, a three-lysine solubilizing tail was added at the 3′-end of the NS4A coding region. […] Briefly, the NS3/4A protease complex expression was induced with 0.5 millimolar (mM) Isopropyl β-D-1-thiogalactopyranoside (IPTG) for 22 hours (h) at 20° C. […] The cells were resuspended in lysis buffer (10 mL/g) consisting of 25 mM N-(2-Hydroxyethyl)piperazine-N′-(2-Ethane Sulfonic acid) (HEPES), pH 7.5, 20% glycerol, 500 mM Sodium Chloride (NaCl), 0.5% Triton X-100, 1 microgram/milliliter (“μg/mL”) lysozyme, 5 mM Magnesium Chloride (MgCl2), 1 μg/ml DnaseI, 5 mM β-Mercaptoethanol (βME), Protease inhibitor—Ethylenediamine Tetraacetic acid (EDTA) free (Roche), homogenized and incubated for 20 minutes (min) at 4° C. The homogenate was sonicated and clarified by ultra-centrifugation at 235000 g for 1 h at 4° C. Imidazole was added to the supernatant to a final concentration of 15 mM and the pH adjusted to 8.0. The crude protein extract was loaded on a Nickel—Nitrilotriacetic acid (Ni-NTA) column pre-equilibrated with buffer B (25 mM HEPES, pH 8.0, 20% glycerol, 500 mM NaCl, 0.5% Triton X-100, 15 mM imidazole, 5 mM βME). The sample was loaded at a flow rate of 1 mL/min. The column was washed with 15 column volumes of buffer C (same as buffer B except with 0.2% Triton X-100). The protein was eluted with 5 column volumes of buffer D (same as buffer C except with 200 mM Imidazole).
NS3/4A protease complex-containing fractions were pooled and loaded on a desalting column Superdex-S200 pre-equilibrated with buffer D (25 mM HEPES, pH 7.5, 20% glycerol, 300 mM NaCl, 0.2% Triton X-100, 10 mM βME). Sample was loaded at a flow rate of 1 mL/min. NS3/4A protease complex-containing fractions were pooled and concentrated to approximately 0.5 mg/ml.
The enzyme was stored at −80° C., thawed on ice and diluted prior to use in assay buffer. […] The sequence of this peptide is loosely based on the NS4A/NS4B natural cleavage site for the HCV NS3 protease except there is an ester linkage rather than an amide bond at the cleavage site. The peptide substrate was incubated with one of the three recombinant NS3/4A protease complexes, in the absence or presence of a compound of the present invention, and the formation of fluorescent reaction product was followed in real time using a Cytofluor Series 4000.
The reagents were as follow: HEPES and Glycerol (Ultrapure) were obtained from GIBCO-BRL. Dimethyl Sulfoxide (DMSO) was obtained from Sigma. β-Mercaptoethanol was obtained from Bio Rad.
Assay buffer: 50 mM HEPES, pH 7.5; 0.15 M NaCl; 0.1% Triton; 15% Glycerol; 10 mM βME. Substrate: 2 μM final concentration (from a 2 mM stock solution in DMSO stored at −20° C.). HCV NS3/4A protease type 1a (1b), 2–3 nM final concentration (from a 5 μM stock solution in 25 mM HEPES, pH 7.5, 20% glycerol, 300 mM NaCl, 0.2% Triton-X100, 10 mM βME).
The assay was performed in a 96-well polystyrene black plate from Falcon.

[2] = system: HCV replicon in Huh7 cells; assay: microbe, parasite or virus in culture; assay type: cell-based, strain 1b; settings: Hepatitis C virus, Huh-7, 96 h; Huh7 cells expressing HCV replicon, 4 days; activity range class
From the text: Generation of HCV Replicon
This system enabled us to evaluate the effects of our HCV Protease compounds on HCV RNA replication. Briefly, using the HCV strain 1b sequence described in the Lohmann paper (Assession number: AJ238799), an HCV cDNA was generated encoding the 5′ internal ribosome entry site (IRES), the neomycin resistance gene, the EMCV (encephalomyocarditis viurs)-IRES and the HCV nonstructural proteins, NS3-NS5B, and 3′ non-translated region (NTR). In vitro transcripts of the cDNA were transfected into the human hepatoma cell line, Huh7. […] Resulting cell lines were characterized for positive and negative strand RNA production and protein production over time.
Huh7 cells, constitutively expressing the HCV replicon, were grown in Dulbecco's Modified Eagle Media (DMEM) containing 10% Fetal calf serum (FCS) and 1 mg/ml G418 (Gibco-BRL). Cells were seeded the night before (1.5×10^4 cells/well) in 96-well tissue-culture sterile plates. Compound and no compound controls were prepared in DMEM containing 4% FCS, 1:100 Penicillin/Streptomysin, 1:100 L-glutamine and 5% DMSO in the dilution plate (0.5% DMSO final concentration in the assay). Compound/DMSO mixes were added to the cells and incubated for 4 days at 37° C. After 4 days, plates were rinsed thoroughly with Phosphate-Buffered Saline (PBS) (3 times 150 μl). The cells were lysed with 25 μl of a lysis assay reagent containing the FRET peptide (RET S1, as described for the in vitro enzyme assay). The lysis assay reagent was made from 5× cell Luciferase cell culture lysis reagent (Promega #E153A) diluted to 1× with distilled water, NaCl added to 150 mM final, the FRET peptide diluted to 10 μM final from a 2 mM stock in 100% DMSO. The plate was then placed into the Cytofluor 4000 instrument which had been set to 340 nm excitation/490 nm emission, automatic mode for 21 cycles and the plate read in a kinetic mode. EC50 determinations were carried out as described for the IC50 determinations. […]
The percentage inhibition was calculated using the formula below: […]
The values were graphed and analyzed using XLFit to obtain the EC50 value.

SMILES | IC50 [1] [nM] | EC50 [2] [nM]
C=C[C@@H]1C[C@]1(NC(=O)[C@@H]1C[C@@H](Oc2nccc3c(Cl)cccc23)CN1C(=O)[C@@H](NC(=O)OC(C)(C)C)C(C)(C)C)C(=O)NS(=O)(=O)C1(CC)CC1 [Cpd 101] | < 100 | < 100
C=C[C@@H]1C[C@]1(NC(=O)[C@@H]1C[C@@H](Oc2nccc3cc(OC)ccc23)CN1C(=O)[C@@H](NC(=O)OC(C)(C)C)C(C)(C)C)C(=O)NS(=O)(=O)C1(CCC)CC1 [Cmpd 302, (1-{4-(6-Methoxy-isoquinolin-1-yloxy)-2-[1-(1-propyl-cyclopropanesulfonylaminocarbonyl)-2-vinyl-cyclopropylcarbamoyl]-pyrrolidine-1-carbonyl}-2,2-dimethyl-propyl)-carbamic acid tert-butyl ester] | < 100 | < 100
C=C[C@@H]1C[C@]1(NC(=O)[C@@H]1C[C@@H](Oc2nccc3c(Cl)cccc23)CN1C(=O)[C@@H](NC(=O)OC(C)C)C(C)(C)C)C(=O)NS(=O)(=O)C1(CC)CC1 [Cpd 111] | < 100 | < 100
C=C[C@@H]1C[C@]1(NC(=O)[C@@H]1C[C@@H](Oc2nccc3cc(OC)c(F)cc23)CN1C(=O)[C@@H](NC(=O)OC(C)(C)C)C(C)(C)C)C(=O)NS(=O)(=O)C1(CC)CC1 [Cpd 109] | < 100 | < 100
C=C[C@@H]1C[C@]1(NC(=O)C1C[C@@H](Oc2nc(-c3ccccc3)nc3ccccc23)CN1C(=O)[C@@H](NC(=O)OC(C)(C)C)C(C)(C)C)C(=O)NS(=O)(=O)C1(CC2CC2)CC1 (stereo partly drawn) [Cmpd 600] | < 100 | < 100
C=C[C@@H]1C[C@]1(NC(=O)[C@@H]1C[C@@H](Oc2nccc3cc(OC)ccc23)CN1C(=O)[C@@H](NC(=O)OC(C)(C)C)C(C)(C)C)C(=O)NS(=O)(=O)C1(CC)CC1 [Cmpd 300, {1-[2-[1-(1-Ethyl-cyclopropanesulfonylaminocarbonyl)-2-vinyl-cyclopropylcarbamoyl]-4-(6-methoxy-isoquinolin-1-yloxy)-pyrrolidine-1-carbonyl]-2,2-dimethyl-propyl}-carbamic acid tert-butyl ester] | < 100 | < 100
